Molecules are shown by their SMILES.

Chain of human NaV1.8 ion channel (Q9Y5Y9 whole entry): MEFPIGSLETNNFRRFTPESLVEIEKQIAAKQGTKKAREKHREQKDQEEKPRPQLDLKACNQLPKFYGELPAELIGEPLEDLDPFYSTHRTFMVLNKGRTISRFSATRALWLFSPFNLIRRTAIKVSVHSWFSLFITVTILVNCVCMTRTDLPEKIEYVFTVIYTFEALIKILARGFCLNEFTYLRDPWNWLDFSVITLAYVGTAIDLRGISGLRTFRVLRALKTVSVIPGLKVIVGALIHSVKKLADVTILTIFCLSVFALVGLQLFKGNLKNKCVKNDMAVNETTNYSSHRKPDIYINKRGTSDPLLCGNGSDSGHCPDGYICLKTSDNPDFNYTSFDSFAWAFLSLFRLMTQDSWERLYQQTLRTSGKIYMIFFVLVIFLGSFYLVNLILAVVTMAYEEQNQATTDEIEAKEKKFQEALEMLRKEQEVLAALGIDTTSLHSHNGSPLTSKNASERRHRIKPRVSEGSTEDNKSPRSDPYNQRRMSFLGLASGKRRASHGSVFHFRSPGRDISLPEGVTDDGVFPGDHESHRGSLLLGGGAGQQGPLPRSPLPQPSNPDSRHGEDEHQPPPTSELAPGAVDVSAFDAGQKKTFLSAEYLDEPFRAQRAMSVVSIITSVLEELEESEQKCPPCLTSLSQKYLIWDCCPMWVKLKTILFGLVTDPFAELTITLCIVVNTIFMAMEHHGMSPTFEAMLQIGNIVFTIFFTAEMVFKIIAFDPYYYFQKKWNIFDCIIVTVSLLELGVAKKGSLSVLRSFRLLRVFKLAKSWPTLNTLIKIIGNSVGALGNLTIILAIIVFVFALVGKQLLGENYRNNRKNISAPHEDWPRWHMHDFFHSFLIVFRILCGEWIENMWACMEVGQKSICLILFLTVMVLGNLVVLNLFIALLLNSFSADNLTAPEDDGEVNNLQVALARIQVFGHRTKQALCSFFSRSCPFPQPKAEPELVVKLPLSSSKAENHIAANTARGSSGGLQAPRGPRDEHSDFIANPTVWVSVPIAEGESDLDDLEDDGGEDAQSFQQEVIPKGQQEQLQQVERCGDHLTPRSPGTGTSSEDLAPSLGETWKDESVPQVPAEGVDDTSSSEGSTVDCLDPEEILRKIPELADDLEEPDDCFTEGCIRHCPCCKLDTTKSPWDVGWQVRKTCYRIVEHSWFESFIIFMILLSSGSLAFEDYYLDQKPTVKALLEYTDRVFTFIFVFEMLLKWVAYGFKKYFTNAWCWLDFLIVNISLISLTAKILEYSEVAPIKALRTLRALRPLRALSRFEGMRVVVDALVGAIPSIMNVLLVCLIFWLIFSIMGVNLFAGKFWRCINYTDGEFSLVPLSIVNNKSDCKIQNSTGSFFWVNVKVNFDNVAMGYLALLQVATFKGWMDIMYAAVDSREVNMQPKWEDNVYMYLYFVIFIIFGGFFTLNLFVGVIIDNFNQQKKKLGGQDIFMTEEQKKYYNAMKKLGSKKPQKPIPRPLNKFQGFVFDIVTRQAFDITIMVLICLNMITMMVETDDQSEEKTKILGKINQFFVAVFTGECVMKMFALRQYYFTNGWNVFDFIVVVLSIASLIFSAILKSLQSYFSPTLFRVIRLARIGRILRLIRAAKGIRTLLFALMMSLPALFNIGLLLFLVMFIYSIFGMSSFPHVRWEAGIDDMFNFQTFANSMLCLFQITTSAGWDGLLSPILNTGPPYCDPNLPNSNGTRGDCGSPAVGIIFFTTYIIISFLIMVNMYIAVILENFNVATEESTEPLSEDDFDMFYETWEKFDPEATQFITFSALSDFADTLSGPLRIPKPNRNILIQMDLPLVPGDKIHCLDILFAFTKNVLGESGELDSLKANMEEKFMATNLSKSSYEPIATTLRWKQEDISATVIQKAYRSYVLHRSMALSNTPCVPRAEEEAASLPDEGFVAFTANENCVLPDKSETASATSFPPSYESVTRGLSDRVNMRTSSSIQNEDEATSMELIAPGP

The first assay deals with human NaV1.8 ion channel (Homo sapiens (Human), UniProt Q9Y5Y9). Kind of assay: Compound inhibition activity on human NaV1.8 ion channel in HEK293 cells (whole-cell patch clamp). The format is cell-based. The conditions noted are these: 100 nm concentration; HEK293 cells, resting protocol. As to the method:
Test Case 1: Compound Inhibition Activity on Human NaV1.8 Ion Channel in HEK293 Cells
The final concentrations of the test compounds are prepared on the same day and then dissolved in extracellular solution. […] The intracellular solution (mM) contains: Aspartic acid, 140; MgCl2, 2; EGTA 11; HEPES, 10; pH 7.2 (CsOH titration). All test solutions contain 1 μM TTX.
The test solution are stored at a concentration of 3 mM in dimethyl sulfoxide (DMSO). The solutions will be dissolved in extracellular solution on the day of testing and prepared to the required concentration.
All experiments were performed at room temperature. Each cell itself is taken as the corresponding control.
At least one cell is tested per concentration.
HEK293 cell steady expressing NaV1.8 ion channel.
The intracellular fluid (mM) contains: Aspartic acid, 140; MgCl2, 2; EGTA 11; HEPES, 10; pH 7.2 (CsOH titration). […] Electrodes are drawn with PC-10 (Narishige, Japan). Recording is performed with whole-cell diaphragm clamp.
The cells are clamped at −80 mV and then depolarized to 10 mV with a sustained 10 ms square wave to give a Nav1.8 current. This procedure is repeated every 5 seconds.
Background: In patch-clamp work, channel activity is measured electrically.
As to `Cc1cc(F)ccc1Oc1ccc(C(F)(F)F)cc1C(=O)Nc1ccc(F)c(C2CCCN2)c1` (centres unmarked) [Example 15, 2-(4-fluoro-2-methylphenoxy)-N-(4-fluoro-3-(pyrrolidin-2-yl)phenyl)-5-(trifluoromethyl) benzamide], the “Inhibition ratio of Nav1.8 (Activity of inhibition)” value is “C (50 >C >= 20)”. In the case of `Cc1cc(F)ccc1Oc1cc(C2CC2)c(C(F)(F)F)cc1C(=O)Nc1ccnc(OCC(O)CO)c1` (centres unmarked) [Example 63, 4-Cyclopropyl-N-(2-(2,3-dihydroxypropoxy)pyridin-4-yl)-2-(4-fluoro-2-methylphenoxy)-5-(trifluoromethyl) benzamide], the “Inhibition ratio of compounds against Nav1.8 (Activity of inhibition)” value is “B (80 > B >= 50)”. `Cc1cc(F)ccc1Oc1cc(C2CC2)c(C(F)(F)F)cc1C(=O)Nc1ccc(F)c(C(N)CCO)c1` (centres unmarked) [Example 3, N-(3-(1-Amino-3-hydroxypropyl)-4-fluorophenyl)-4-cyclopropyl-2-(4-fluoro-2-methylphenoxy)-5-(trifluoromethyl) benzamide]: the “Inhibition ratio of Nav1.8 (Activity of inhibition)” value is given as “A (A >= 80)”.

The assay is the same for the next values; noted with them: 100 nm concentration; HEK293 cells, resting protocol; read-out: Inhibition ratio of Nav1.8 (Activity of inhibition).
Consider `Cc1cc(F)ccc1Oc1ccc(C(F)(F)F)cc1C(=O)Nc1ccc(F)c(C(C)C(N)=O)c1` (centres unmarked) [Example 27, N-(3-(1-Amino-1-oxopropan-2-yl)-4-fluorophenyl)-2-(4-fluoro-2-methylphenoxy)-5-(trifluoromethyl) benzamide], for which the inhibition at 0.1 µM is > 80%. Same read-out and setting: to `Cc1cc(F)ccc1Oc1cc(C2CC2)c(C(F)(F)F)cc1C(=O)Nc1ccc(F)c(C(C)CN)c1` (centres unmarked) [Example 30, N-(3-(1-aminopropyl-2-yl)-4-fluorophenyl)-4-cyclopropyl-2-(4-fluoro-2-methylphenoxy)-5-(trifluoromethyl) benzamide] belongs 50 to 80%; to `Cc1cc(F)ccc1Oc1cc(C2CC2)c(C(F)(F)F)cc1C(=O)Nc1ccc(F)c(C(N)C2CCNC2=O)c1` (centres unmarked) [Example 19, N-(3-(amino (2-oxopyrrolidin-3-yl)methyl)-4-fluorophenyl)-4-cyclopropyl-2-(4-fluoro-2-methylphenoxy)-5-(trifluoromethyl) benzamide], > 80%.

Regarding `Cc1cc(F)ccc1Oc1ccc(C(F)(F)F)cc1C(=O)Nc1ccc(F)c(C(N)CC(=O)O)c1` (centres unmarked) [Example 2, 3-Amino-3-(2-fluoro-5-(2-(4-fluoro-2-methylphenoxy)-5-(trifluoromethyl)benzamido)phenyl) propanoic acid], the inhibition at 0.1 µM is < 20%. Same read-out and setting: to `CNC(CCO)c1cc(NC(=O)c2cc(C(F)(F)F)c(C3CC3)cc2Oc2ccc(F)cc2C)ccc1F` (centres unmarked) [Example 7, 4-Cyclopropyl-2-(4-fluoro-2-methylphenoxy)-N-(4-fluoro-3-(3-hydroxy-1-(methylamino)propyl)phenyl)-5-(trifluoromethyl) benzamide] belongs > 80%; to `Cc1cc(F)ccc1Oc1cc(C2CC2)c(C(F)(F)F)cc1C(=O)Nc1ccnc(C(N)CC(N)=O)c1` (centres unmarked) [Example 35], > 80%; to `Cc1cc(F)ccc1Oc1cc(C2CC2)c(C(F)(F)F)cc1C(=O)Nc1ccc(F)c(OCCN)c1` [Example 34, N-(3-(2-aminoethoxy)-4-fluorophenyl)-4-cyclopropyl-2-(4-fluoro-2-methylphenoxy)-5-(trifluoromethyl) benzamide], 50 to 80%.

In the case of `Cc1cc(F)ccc1Oc1ccc(C(F)(F)F)cc1C(=O)Nc1ccnc(CN)c1` [Example 40], the inhibition at 0.1 µM lay in the range of 50 to 80%. The same measure, in the same setting: to `Cc1cc(F)ccc1Oc1ccc(C(F)(F)F)cc1C(=O)Nc1ccc(F)c(C(O)C2CCNC2=O)c1` (centres unmarked) [Example 25, 2-(4-fluoro-2-methylphenoxy)-N-(4-fluoro-3-(hydroxyl (2-oxopyrrolidin-3-yl)methyl)phenyl)-5-(trifluoromethyl) benzamide] belongs 20 to 50%.

The assay is the same for the next values; noted with them: 100 nm concentration; HEK293 cells, resting protocol; read-out: Inhibition ratio of compounds against Nav1.8 (Activity of inhibition).
For the compound `COc1cc(F)ccc1Oc1cc(C(F)(F)F)c(Cl)cc1C(=O)Nc1ccnc(OC[C@H](O)CO)c1` [Example 120], the inhibition at 0.1 µM is > 80%. Still for that read-out and setting: to `Cc1cc(F)ccc1Oc1cc(C2CC2)c(C(F)(F)F)cc1C(=O)Nc1ccc(F)c(OCC(O)CNc2ccn[nH]2)c1` (centres unmarked) [Example 99] belongs 50 to 80%; to `Cc1cc(F)ccc1Oc1cc(C2CC2)c(C(F)(F)F)cc1C(=O)Nc1ccc(F)c(C(N)CC(C)N)c1` (centres unmarked) [Example 46, 4-Cyclopropyl-N-(3-(1,3-diaminobutyl)-4-fluorophenyl)-2-(4-fluoro-2-methylphenoxy)-5-(trifluoromethyl) benzamide], > 80%; to `Cc1cc(F)ccc1Oc1cc(C2CC2)c(C(F)(F)F)cc1C(=O)Nc1cccc(OCC(O)CNC(C)C)c1` (centres unmarked) [Example 82], > 80%.

Regarding `Cc1cc(F)ccc1Oc1cc(C2CC2)c(C(F)(F)F)cc1C(=O)Nc1ccnc(OC[C@@H](O)CO)c1` [Example 105], the inhibition at 0.1 µM lay within 50 to 80%. Regarding `Cc1cc(F)ccc1Oc1cc(C(F)(F)F)c(Cl)cc1C(=O)Nc1ccnc(OCC(O)CO)c1` (centres unmarked) [Example 103], the inhibition at 0.1 µM was > 80%. The same measure, in the same setting: to `Cc1cc(F)ccc1Oc1cc(C2CC2)c(C(F)(F)F)cc1C(=O)Nc1ccc(F)c(OCC(O)CN2CCCC2)c1` (centres unmarked) [Example 79] belongs 20 to 50%; to `Cc1cc(F)ccc1Oc1cc(C2CC2)c(C(F)(F)F)cc1C(=O)Nc1ccc(F)c(C(CCO)n2ccnc2)c1` (centres unmarked) [Example 49, 4-Cyclopropyl-2-(4-fluoro-2-methylphenoxy)-N-(4-fluoro-3-(3-hydroxy-1-(1H-imidazol-1-yl)propyl)phenyl)-5-(trifluoromethyl) benzamide], 50 to 80%; to `Cc1cc(F)ccc1Oc1cc(C2CC2)c(C(F)(F)F)cc1C(=O)Nc1ccc(F)c(OC2CC(O)C2)c1` (centres unmarked) [Example 71], 50 to 80%. The same measure, in the same setting: to `Cc1cc(F)ccc1Oc1cc(C2CC2)c(C(F)(F)F)cc1C(=O)Nc1ccc(F)c(OCC(O)CNc2ccccc2)c1` (centres unmarked) [Example 92] belongs 20 to 50%.

For the compound `Cc1cc(F)ccc1Oc1cc(C2CC2)c(C(F)(F)F)cc1C(=O)Nc1ccc(F)c(C(N)CCNC(C)(C)C)c1` (centres unmarked) [Example 66], the inhibition at 0.1 µM is > 80%. The same measure, in the same setting: to `Cc1cc(F)ccc1Oc1cc(C2CC2)c(C(F)(F)F)cc1C(=O)Nc1ccnc(C(F)(F)F)c1` [Example 69] belongs 20 to 50%; to `Cc1cc(F)ccc1Oc1cc(C2CC2)c(C(F)(F)F)cc1C(=O)Nc1ccc(F)c(OCC(O)CNC(C)C(F)(F)F)c1` (centres unmarked) [Example 91], 20 to 50%.

On to `Cc1cc(F)ccc1Oc1cc(C(F)(F)F)c(Cl)cc1C(=O)Nc1cnnc(OC[C@@H](O)CO)c1` [Example 115], for which the inhibition at 0.1 µM was 50 to 80%. In the case of `Cc1cc(F)ccc1Oc1cc(C2CC2)c(C(F)(F)F)cc1C(=O)Nc1ccc(F)c(O)c1` [Example 56, 4-cyclopropyl-2-(4-fluoro-2-methylphenoxy)-N-(4-fluoro-3-hydroxyphenyl)-5-(trifluoromethyl) benzamide], the inhibition at 0.1 µM fell in the range of 50 to 80%. The same measure, in the same setting: to `Cc1cc(F)ccc1Oc1cc(C(F)(F)F)ccc1C(=O)Nc1ccc(F)c(OCC(O)CN)c1` (centres unmarked) [Example 110] belongs 50 to 80%.

The same assay, now with this note: HEK293, read-out: Inhibition ratio of Nav1.8 (Activity of inhibition).
For the compound `Cc1cc(F)ccc1Oc1ccc(C(F)(F)F)cc1C(=O)Nc1ccc(F)c(C(N)C(C)C(N)=O)c1` (centres unmarked) [Example 4, N-(3-(1,3-Diamino-2-methyl-3-oxopropyl)-4-fluorophenyl)-2-(4-fluoro-2-methylphenoxy)-5-(trifluoromethyl) benzamide], the inhibition at 0.1 µM was 50 to 80%.

Source of the values: patent US20230303497A1, “BENZYLAMINE OR BENZYL ALCOHOL DERIVATIVE AND USES THEREOF” (CHENGDU HYPERWAY PHARMACEUTICALS CO., LTD, priority 2020, published 2023).
